≈ marks a conversion by molar mass, not a printed value. Where two headings read alike, the source gives them in different places.
Assays:
[1] = test system: Escherichia coli Juhl (Ec-3); assay: MIC, two-fold agar dilution; format: cell-based; settings: 18 h
Description: (§1) The minimum inhibitory concentrations (MIC) of Bu-2349A and B were determined against a wide variety of bacteria by the two-fold agar dilution method. Mueller-Hinton agar medium was generally used for the determination of bacterial MIC except for species of Streptococcus, Neisseria and Hemophilus for which Gonococcus agar medium (GC agar, Nissui Co., Tokyo) was used. Gifu anaerobe agar medium (GAM agar, Eiken Co., Tokyo) was used for anaerobic bacteria. The MIC's were determined after overnight incubation at 37° C. with an initial inoculum equivalent to a 10^-4 dilution of an 18-hour culture for the aerobic and anaerobic bacteria, except for Streptococcus, Neisseria and Hemophilus for which a 10^-2 dilution was used.
(§2) The influence of inoculum size on MIC was tested on Mueller-Hinton agar using an inoculum of […], 10^-2 or 10^-4 dilution of the overnight culture of test organisms.
(§3) The effect of media pH on the MIC's of Bu-2349A was determined at three pH levels (6, 7 and 8) using Mueller-Hinton agar.
(§4) The media effect on the MIC's of Bu-2349A was tested using four kinds of assay media: Mueller-Hinton agar (MHA), nutrient agar (NA), heart infusion agar (HIA) and brain heart infusion agar (BHIA). The pH was adjusted at 7 and a 10^-4 dilution of overnight culture was used for the inoculum.

[2] = test system: Escherichia coli ML-1630 (Ec-5), APH(3')-1; assay: MIC, two-fold agar dilution; format: cell-based; settings: 18 h
Description: as §1, §2, §3, §4

Proteus mirabilis (Pm-1) = assay: MIC, two-fold agar dilution; format: cell-based
Description: as §1, §2, §3, §4

Proteus morganii (Pg-1) = assay: MIC, two-fold agar dilution; format: cell-based; settings: Morganella morganii, 18 h
Description: as §1, §2, §3, §4

[3] = test system: Streptococcus pneumoniae (Dp-4); assay: MIC, two-fold agar dilution; format: cell-based; settings: 18 h, Table 3, GC agar, 10^-2 dilution
[4] = test system: Mycobacterium ranae ATCC 110 (Mr-1); assay: MIC, two-fold agar dilution; format: cell-based; settings: ATCC110, 18 h, Table 3, Mueller-Hinton agar, 10^-4 dilution
[5] = test system: Escherichia coli (Ec-9), AAC(6')-1; assay: MIC, two-fold agar dilution; format: cell-based; settings: 18 h, Table 3, Mueller-Hinton agar, 10^-4 dilution, enzyme AAC(6')-1
[6] = test system: Escherichia coli (Ec-49), APH(3')-2; assay: MIC, two-fold agar dilution; format: cell-based; settings: 18 h, Table 3, Mueller-Hinton agar, 10^-4 dilution, enzyme APH(3')-2
[7] = test system: Enterobacter cloacae (El-35), AAC(3)-3; assay: MIC, two-fold agar dilution; format: cell-based; settings: 18 h, Table 3, Mueller-Hinton agar, 10^-4 dilution, enzyme AAC(3)-3
[8] = test system: Klebsiella pneumoniae (Kp-33), AAC(3)-3; assay: MIC, two-fold agar dilution; format: cell-based; settings: 18 h, Table 3, Mueller-Hinton agar, 10^-4 dilution, enzyme AAC(3)-3
[9] = test system: Neisseria gonorrhoeae (Ng-1); assay: MIC, two-fold agar dilution; format: cell-based; settings: 18 h, Table 3, GC agar, 10^-2 dilution
[10] = test system: Hemophylus influenzae (He-2); assay: MIC, two-fold agar dilution; format: cell-based; settings: 18 h; Table 3; GC agar, 10^-2 dilution
[11] = test system: Bacteroides fragilis (Bf-3); assay: MIC against anaerobic bacteria; format: cell-based; settings: 18 h, Table 4, GAM Medium, pH 7
[12] = test system: Clostridium chauvoei (Ch-1); assay: MIC against anaerobic bacteria; format: cell-based; settings: 18 h, Table 4, GAM Medium, pH 7
Description: as §1

[13] = test system: Propionibacterium acnes (Pc-102); assay: MIC against anaerobic bacteria; format: cell-based; settings: Cutibacterium acnes, 18 h; Table 4; GAM Medium, pH 7
Description: as §1

[14] = mouse blood level, paper disc-agar plate assay; format: in vivo; settings: mice, im, 50 mg./kg.
Description: Blood levels were determined in mice following intramuscular administration of Bu-2349A at a dose of 50 mg./kg. Blood samples were collected from orbital sinuses and assayed by the paper disc-agar plate method using B. subtilis PCI 219 as the test organism.

acute LD50 in mice = settings: mouse, in vivo
solubility = format: physicochemical; settings: hydrochloride salt
[15] = test system: gram-positive and gram-negative bacteria; assay: in vitro antibacterial activity, overall statements; format: cell-based
Description: as §1, §2, §3, §4

[16] = Table 3, Mueller-Hinton agar, 10^-4 dilution
[17] = pH 6, Table 6, Mueller-Hinton Agar, 10^-4 dilution, pH 6
[18] = pH 7, Table 5, Mueller-Hinton Agar, pH 7, inoculum 10^0 dil.
[19] = pH 7, Table 5, Mueller-Hinton Agar, pH 7, inoculum 10^-2 dil.
[20] = pH 7, Table 5, Mueller-Hinton Agar, pH 7, inoculum 10^-4 dil.
[21] = pH 7, Table 6, Mueller-Hinton Agar, 10^-4 dilution, pH 7
[22] = pH 7, Table 7, pH 7, 10^-4 dilution, BHIA
[23] = pH 7, Table 7, pH 7, 10^-4 dilution, HIA
[24] = pH 7, Table 7, pH 7, 10^-4 dilution, MHA
[25] = pH 7, Table 7, pH 7, 10^-4 dilution, NA
[26] = pH 8, Table 6, Mueller-Hinton Agar, 10^-4 dilution, pH 8

## C=C1OC(OC2C(CO)OC(Oc3ccc(C(=O)NCCCNCCCCNCCCCN)cc3)C2O)C(O)C(OC2OC(CO)C(OC3OC(C)C(N)C(O)C3NC(=O)C(C)N)C(O)C2O)C1O (stereo not shown) [Bu-2349A]
[1]; [16]
  MIC: 1.6 µg/mL (≈ 1.62 µM)
[1]; [17]
  MIC: 25 µg/mL (≈ 25.2 µM)
[1]; [18]
  MIC: 6.3 µg/mL (≈ 6.36 µM)
[1]; [19]
  MIC: 3.1 µg/mL (≈ 3.13 µM)
[1]; [20]
  MIC: 3.1 µg/mL (≈ 3.13 µM)
[1]; [21]
  MIC: 3.1 µg/mL (≈ 3.13 µM)
[1]; [22]
  MIC: 6.3 µg/mL (≈ 6.36 µM)
[1]; [23]
  MIC: 1.6 µg/mL (≈ 1.62 µM)
[1]; [24]
  MIC: 3.1 µg/mL (≈ 3.13 µM)
[1]; [25]
  MIC: 3.1 µg/mL (≈ 3.13 µM)
[1]; [26]
  MIC: 1.6 µg/mL (≈ 1.62 µM)
[2]; Table 3, Mueller-Hinton agar, 10^-4 dilution, enzyme APH(3')-1
  MIC: 1.6 µg/mL (≈ 1.62 µM)
[2]; [17]
  MIC: 50 µg/mL (≈ 50.5 µM)
[2]; [18]
  MIC: 6.3 µg/mL (≈ 6.36 µM)
[2]; [19]
  MIC: 3.1 µg/mL (≈ 3.13 µM)
[2]; [20]
  MIC: 3.1 µg/mL (≈ 3.13 µM)
[2]; [21]
  MIC: 3.1 µg/mL (≈ 3.13 µM)
[2]; [22]
  MIC: 3.1 µg/mL (≈ 3.13 µM)
[2]; [23]
  MIC: 1.6 µg/mL (≈ 1.62 µM)
[2]; [24]
  MIC: 3.1 µg/mL (≈ 3.13 µM)
[2]; [25]
  MIC: 1.6 µg/mL (≈ 1.62 µM)
[2]; [26]
  MIC: 1.6 µg/mL (≈ 1.62 µM)
Proteus mirabilis (Pm-1); Proteus mirabilis, 18 h, Table 3, Mueller-Hinton agar, 10^-4 dilution, read-out: MIC
  MIC: 6.3 µg/mL (≈ 6.36 µM)
Proteus mirabilis (Pm-1); Proteus mirabilis, 18 h, pH 6, Table 6, Mueller-Hinton Agar, 10^-4 dilution, pH 6, read-out: MIC
  MIC: > 50 µg/mL
Proteus mirabilis (Pm-1); Proteus mirabilis, 18 h, pH 7
  MIC: 12.5 µg/mL (≈ 12.6 µM)
Proteus mirabilis (Pm-1); Proteus mirabilis, 18 h, pH 7, Table 5, Mueller-Hinton Agar, pH 7, inoculum 10^0 dil., read-out: MIC
  MIC: 50 µg/mL (≈ 50.5 µM)
Proteus mirabilis (Pm-1); Proteus mirabilis, 18 h, pH 7, Table 5, Mueller-Hinton Agar, pH 7, inoculum 10^-2 dil., read-out: MIC
  MIC: 25 µg/mL (≈ 25.2 µM)
Proteus mirabilis (Pm-1); Proteus mirabilis, 18 h, pH 7, Table 7, pH 7, 10^-4 dilution, HIA, read-out: MIC
  MIC: 6.3 µg/mL (≈ 6.36 µM)
Proteus mirabilis (Pm-1); Proteus mirabilis, 18 h, pH 7, Table 7, pH 7, 10^-4 dilution, MHA, read-out: MIC
  MIC: 6.3 µg/mL (≈ 6.36 µM)
Proteus mirabilis (Pm-1); Proteus mirabilis, 18 h, pH 7, Table 7, pH 7, 10^-4 dilution, NA, read-out: MIC
  MIC: 3.1 µg/mL (≈ 3.13 µM)
Proteus mirabilis (Pm-1); Proteus mirabilis, 18 h, pH 8
  MIC: 12.5 µg/mL (≈ 12.6 µM)
Proteus mirabilis (Pm-1); Table 6, Mueller-Hinton Agar, 10^-4 dilution, pH 7
  MIC: 12.5 µg/mL (≈ 12.6 µM)
Proteus mirabilis (Pm-1); Table 7, pH 7, 10^-4 dilution, BHIA
  MIC: 12.5 µg/mL (≈ 12.6 µM)
Proteus morganii (Pg-1); [16]
  MIC: 25 µg/mL (≈ 25.2 µM)
Proteus morganii (Pg-1); [17]
  MIC: > 50 µg/mL
Proteus morganii (Pg-1); [18]
  MIC: > 50 µg/mL
Proteus morganii (Pg-1); [19]
  MIC: 50 µg/mL (≈ 50.5 µM)
Proteus morganii (Pg-1); [20]
  MIC: 25 µg/mL (≈ 25.2 µM)
Proteus morganii (Pg-1); [21]
  MIC: 25 µg/mL (≈ 25.2 µM)
Proteus morganii (Pg-1); [22]
  MIC: 25 µg/mL (≈ 25.2 µM)
Proteus morganii (Pg-1); [23]
  MIC: 25 µg/mL (≈ 25.2 µM)
Proteus morganii (Pg-1); [24]
  MIC: 25 µg/mL (≈ 25.2 µM)
Proteus morganii (Pg-1); [25]
  MIC: 6.3 µg/mL (≈ 6.36 µM)
Proteus morganii (Pg-1); [26]
  MIC: 25 µg/mL (≈ 25.2 µM)
[3]
  MIC: > 100 µg/mL
[4]
  MIC: 3.1 µg/mL (≈ 3.13 µM)
[5]
  MIC: 0.8 µg/mL (≈ 0.808 µM)
[6]
  MIC: 1.6 µg/mL (≈ 1.62 µM)
[7]
  MIC: 3.1 µg/mL (≈ 3.13 µM)
[8]
  MIC: 3.1 µg/mL (≈ 3.13 µM)
[9]
  MIC: > 100 µg/mL
[10]
  MIC: > 100 µg/mL
[11]
  MIC: > 100 µg/mL
[12]
  MIC: > 100 µg/mL
[13]
  MIC: 12.5 µg/mL (≈ 12.6 µM)
[14]; after 2 hours
  antibiotic activity in blood after 2 hours: No antibiotic activity was detected
[14]; after the peak
  elimination from the blood stream: rapid elimination from the blood stream
[14]; mouse, blood, 15 minutes
  concentration at 0.25 h: 15000 ng/mL
[14]; mouse, blood, 30 minutes
  concentration at 0.5 h: 12000 ng/mL
[14]; mouse, blood, 60 minutes
  concentration at 1 h: 2800 ng/mL
[14]; mouse, blood, 120 minutes
  concentration at 2 h: > 1000 ng/mL
[14]; mouse, blood, read-out: time of peak blood level (converted)
  Tmax: 15 min
Acute LD50 in mice; im, intramuscular
  LD50: 315 mg/kg
Acute LD50 in mice; intravenous
  LD50: 35 mg/kg
solubility; methanol, ethanol, dimethylsulfoxide and dimethylformamide
  solubility in methanol, ethanol, dimethylsulfoxide and dimethylformamide: slightly soluble
solubility; other common organic solvents
  solubility in other common organic solvents: practically insoluble
solubility; water
  solubility in water: soluble
[15]; Mueller-Hinton agar, 10^0, 10^-2 or 10^-4 dilution
  effect of inoculum size on antibiotic activity: no significant effect
[15]; NA and HIA compared with MHA or BHIA, pH 7
  effect of medium on activity: higher activity in NA and HIA than in MHA or BHIA
[15]; gram-positive and gram-negative bacteria, including aminoglycoside-resistant bacteria, summary statement
  inhibitory activity both in vitro and in vivo: marked inhibitory activity
[15]; including bacteria which produce aminoglycoside-modifying enzymes
  antibacterial activity: active
[15]; pH 6 compared with pH 7
  effect of pH 6 on activity: much reduced activity
[15]; pH 8 compared with pH 7
  effect of pH 8 on activity: approximately twice as active
